{
  "source": "patent US9458161B1",
  "about": "“TSPO ligands for cancer imaging and treatment” (Vanderbilt University, priority 2011, dated 2016)",
  "key": {"TSPO [1]": {"biological_target": "T1, TSPO (Rattus norvegicus, UniProt P16257)", "assay": "Compartmental binding assay in heavy and light fractions of C6 cell lysate", "set-up": "from tissue; host or cells: C6 glioma tumour and normal brain / other tissues of living rats", "description": "In order to fully characterize TSPO expression profile in the healthy tissues and C6 cells, this example includes subcellular studies. The present inventors separated two fractions of tissue and C6 cell lysates based on the density difference. […] Based on these two fractions, we performed western blot to determine TSPO expression profile in a variety of healthy tissues and C6 cell lysates. […] Thus, we evaluated the binding potential of VUIIS1008 in different fractions."}, "TSPO [2]": {"biological_target": "T1, TSPO", "assay": "Radioligand displacement of [3H]PK 11195 in C6 glioma cell / tumor lysate", "type": "binding", "set-up": "from tissue; host or cells: C6 glioma tumour and normal brain / other tissues of living rats", "settings": "for binding affinity (in words): tumor lysate / C6 cell lysate", "description": "Given our focus of targeting TSPO expressed in tumors, affinity assays will be conducted in whole and fractionated tumor lysate.\nIn this Example Glioma-bearing rats were imaged with [^18F]PBR06 in a microPET system. Dynamic acquisitions were acquired simultaneously upon injection of 70-100 MBq/0.2 mL [^18F]PBR06. Over the course of scanning, arterial blood was collected to derive the input function, with HPLC radiometabolite analysis performed on selected samples for arterial input function correction. Compartmental modeling of the PET data was performed using the corrected arterial input function. Specific tumor cell binding of PBR06 was evaluated by radioligand displacement of [^3H]PK 11195 with PBR06 in vitro and by displacement of [^18F]PBR06 with excess PBR06 in vivo. Immediately following imaging, tumor tissue and adjacent healthy brain were harvested for assay of TSPO protein levels by western blotting and immunohistochemistry.\nRadioligand displacement of the high-affinity isoquinoline carboxamide TSPO ligand [^3H]PK 11195 was used to evaluate the specific binding of the non-radioactive analogue PBR06 in C6 glioma cell line homogenates in vitro (FIG. 10). […]"}, "DiFi human CRC cells": {"system": "DiFi human CRC cells", "assay": "Immunoblotting of markers in DiFi cells (WT KRAS) after 24 hr drug exposure", "type": "cell-based", "description": "In these studies, cultured cells were exposed to drug for 24 hr, harvested, and the protein levels of various markers were assayed by immunoblotting."}, "LIM 2405 human CRC cells": {"system": "LIM 2405 human CRC cells", "assay": "Immunoblotting of markers in LIM 2405 cells (mutant B-RAF) after 24 h drug exposure", "type": "cell-based", "description": "In these studies, LIM 2405 human CRC cells were exposed to drug for 24 h, harvested, and the protein levels of various markers were assayed by immunoblotting."}, "colorectal cancer (CRC)": {"system": "colorectal cancer (CRC)", "assay": "In vivo combination of PBR06 with Cetuximab in WT and mutant KRAS CRC cohorts", "set-up": "species or system mice", "description": "This synergism is shown with both wild type (WT) and mutant KRAS colorectal cancer (CRC) cohorts (mice)."}, "[3]": {"system": "HCT116 p53−/− human CRC cells", "assay": "Immunoblotting of markers in HCT116 p53−/− cells (mutant KRAS) after 24 h drug exposure", "type": "cell-based", "description": "In these studies, HCT116 p53−/− human CRC cells were exposed to drug for 24 h, harvested, and the protein levels of various markers were assayed by immunoblotting."}, "TSPO [4]": {"biological_target": "T1, TSPO", "assay": "Dynamic microPET of [18F]VUIIS-1008 in C6 glioma-bearing rats, with compartmental modeling and in vivo displacement", "set-up": "from tissue; host or cells: C6 glioma tumour and normal brain / other tissues of living rats", "settings": "3-tissue model, tumor; mean; listed as VUIIS1008", "description": "Dynamic microPET imaging can be performed as in tumor-bearing and non-tumor-bearing rats. […] […] For displacement studies, ‘cold’ analog (10 mg/kg) are injected via jugular catheter 30 min after radiotracer administration. Prior to PET scanning, tumors are localized in tumor-bearing rats using MRI, including T2-weighted and diffusion-weighted scans. For longitudinal studies, tumor volumes are measured using a three-dimensional, T2-weighted fast spin-echo sequence on a Varian 9.4 T horizontal bore imaging system.\nA 3-compartment, 4-rate constant kinetic model can be used to characterize [^18F]PBR06 pharmacokinetics. […] These rate constants can be used to calculate the total volume of distribution (VT) in tissues of interest. Modeling will be carried out for whole brain (excluding tumor) and tumor by fitting time-activity curves (TACs) of each region.\nBefore PET imaging with ^18F-VUIIS1008, brain tumors were localized with T2-weighted MRI. […] After the initial spike in radioactivity consistent with tracer injection, ^18F-VUIIS1008 rapidly cleared from the plasma. Imaging-matched brains were processed for staining and immunohistochemistry. Using standard hematoxylin and eosin staining to localize the tumor, the present inventors discovered that TSPO expression was significant higher in tumor than in the adjacent healthy brain.\nIn order to fully evaluate the novel performance of ^18F-VUIIS1008, we have also determined ^18F-VUIIS 1008 pharmacodynamics with arterial input function."}, "nuclear TSPO": {"system": "nuclear TSPO", "assay": "Fractional (nuclear) displacement assay against [3H]PK 11195", "settings": "fractional nuclear binding assay, displacement of [3H]PK 11195", "description": "The characterization strategy can begin with a high-throughput fractional displacement assay developed in our laboratory (FIG. 8). This assay capitalizes upon the fact that PK 11195 binds nuclear and mitochondrial TSPO. Fractionated tumor lysate material containing an equivalent distribution of nuclear and mitochondrial TSPO (32) is incubated with [^3H]PK 11195 and candidate ligands. After incubation, protein is collected by centrifugation and microspotted in triplicate into high-density arrays (˜1 uL). The resultant radioligand displacement of each assay is quantified using a high-resolution digital autoradiography imaging system (BiospaceLab)."}, "TSPO [5]": {"biological_target": "T1, TSPO", "assay": "In vivo PET evaluation of [18F]VUIIS-0005 in C6 glioma", "set-up": "from tissue; host or cells: C6 glioma tumour and normal brain / other tissues of living rats", "description": "Dynamic microPET imaging can be performed as in tumor-bearing and non-tumor-bearing rats. […] Dynamic images (120 min) are collected, followed by CT for attenuation correction and cross-platform registration. For displacement studies, ‘cold’ analog (10 mg/kg) are injected via jugular catheter 30 min after radiotracer administration. Prior to PET scanning, tumors are localized in tumor-bearing rats using MRI, including T2-weighted and diffusion-weighted scans. For longitudinal studies, tumor volumes are measured using a three-dimensional, T2-weighted fast spin-echo sequence on a Varian 9.4 T horizontal bore imaging system."}, "[6]": {"settings": "C6 glioma cell lysate / tumor lysate, read-out: IC50, displacement of [3H]PK 11195"}, "[7]": {"settings": "PBR06 single agent, increasing concentrations, 24 h"}},
  "note": "Entries after “also recorded” stand apart in the source; their conditions may differ. Like-named read-outs stand apart in the source and are kept apart here.",
  "data": [
    {"smiles": "COc1ccc(OC)c(CN(C(=O)CF)c2ccccc2Oc2ccccc2)c1", "note": "[PBR06]", "values": [
      {"measurement": "binding affinity in heavy (nuclei) and light (mitochondria) fractions (in words)", "setting": "TSPO [1]", "result": "bind to the light fraction selectively with a high binding affinity"},
      {"measurement": "IC50", "setting": "TSPO [2]", "result": "~12.6", "unit": "nM"},
      {"measurement": "IC50", "setting": "TSPO [2]; [6]", "result": 12, "unit": "nM"},
      {"measurement": "binding affinity", "setting": "TSPO [2]; whole tumor lysate", "result": "~12", "unit": "nM"},
      {"measurement": "p27 levels (cell cycle arrest)", "setting": "DiFi human CRC cells; PBR06 single agent 10 nM, 24 hr", "result": "significantly elevated p27"},
      {"measurement": "pERK levels", "setting": "DiFi human CRC cells; PBR06 single agent, increasing concentrations 10 nM-10 uM, 24 hr", "result": "modestly elevated levels of pERK"},
      {"measurement": "enhancement in the efficacy of C225 by combination with TSPO ligand", "setting": "DiFi human CRC cells; WT KRAS CRC cell line", "result": "approximately 10 fold"},
      {"measurement": "p27 levels (cell cycle arrest)", "setting": "DiFi human CRC cells; lowest dosage of C225 (+) combined with all dosages of PBR06", "result": "significantly elevated levels of p27 could be achieved"},
      {"measurement": "p21 induction", "setting": "LIM 2405 human CRC cells; PBR06 in combination with C225, even the lowest dosages of C225", "result": "significant induction of p21"},
      {"measurement": "pERK levels", "setting": "LIM 2405 human CRC cells; [7]", "result": "elevated levels of pERK"},
      {"measurement": "effect in combination with Cetuximab (in words)", "setting": "colorectal cancer (CRC); WT and mutant KRAS CRC cohorts (mice)", "result": "in vivo synergistic effect"},
      {"measurement": "tolerability (in words)", "setting": "colorectal cancer (CRC); mice", "result": "well tolerated among the test subjects"},
      {"measurement": "cleaved caspase 3 (apoptosis)", "setting": "[3]; C225 combined with all but the lowest concentration of PBR06", "result": "significant levels of cleaved caspase 3 were induced"},
      {"measurement": "pERK levels", "setting": "[3]; PBR06 in combination with elevated concentrations of C225", "result": "pERK could be fully inhibited at elevated concentrations of C225 with PBR06"},
      {"measurement": "pERK levels", "setting": "[3]; [7]", "result": "modestly elevated levels of pERK"},
      {"measurement": "p27 levels (cell cycle arrest)", "setting": "[3]; lowest concentration of C225 combined with PBR06 at all concentrations", "result": "resulted in elevated p27"}
    ]},
    {"smiles": "CCc1cc(CC)n2nc(-c3ccc(OCCF)cc3)c(CC(=O)N(CC)CC)c2n1", "note": "[VUIIS-1008]", "values": [
      {"measurement": "binding affinity in heavy (nuclei) and light (mitochondria) fractions (in words)", "setting": "TSPO [1]", "result": "comparable high binding affinity of VUIIS1008 in both two fractions"},
      {"measurement": "fold higher binding affinity compared with DPA-714 and PBR06", "setting": "TSPO [2]; C6 cell lysate, against [3H]PK11195", "result": 30, "unit": "fold"},
      {"measurement": "IC50", "setting": "TSPO [2]; [6]", "result": "~1", "unit": "nM"},
      {"measurement": "IC50 fold lower than PBR06 or DPA-714", "setting": "TSPO [2]; against 3H-PK 11195 in tumor lysate", "result": "approximately 10 fold"},
      {"measurement": "binding affinity (in words)", "setting": "TSPO [2]; listed as VUIIS1008", "result": "sub-nanomolar binding affinity"},
      {"measurement": "k6", "setting": "TSPO [4]", "result": "near-zero K6 in the tumor"},
      {"measurement": "affinity for nuclear TSPO (in words)", "setting": "nuclear TSPO", "result": "nanomolar binding affinity; also recorded: targets nuclear TSPO"}
    ]},
    {"smiles": "COc1ccc(OC)c(CN(C(=O)CF)c2ccccc2Sc2ccccc2)c1", "note": "[[^18F]VUIIS-0005]", "values": [
      {"measurement": "in vivo uptake distribution (in words)", "setting": "TSPO [5]", "result": "primarily confined to tumor tissue, with significantly less normal brain uptake compared to ^18F-PBR06"},
      {"measurement": "binding affinity (in words)", "setting": "TSPO [2]", "result": "improved binding affinity in tumor lysate compared to PBR06 or DPA-714"}
    ]}
  ]
}
